Reference: the supplement of paper PMC10307832

Columns and labels:
Assay in all cases: relative viability (nuclei count vs DMSO), 5 days (fraction); higher = more cells survive
[1] = compound: O=C(CCCCCCNC(=O)c1cnc(N(c2ccccc2)c2ccccc2)nc1)NO [Ricolinostat] + CC(C)C[C@H](NC(=O)[C@H](Cc1ccccc1)NC(=O)c1cnccn1)B(O)O [Bortezomib] (partner 0.002 µM)
Procedure, shortened: (§1)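 Relative viability was taken as the ratio of nuclei in treated wells to nuclei in vehicle wells. Lung cancer cell lines in 1536-well plates received compounds by pin tool one day after seeding, either one drug alone or a fixed anchor-drug dose plus five library-drug doses (not always all listed) in √10 steps. Nuclei were counted on 4× images after 5 days of treatment, and values are medians of duplicate plates.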

TGX 221 + Vorinostat = compound: CC1=CN2C(=O)C=C(N=C2C(=C1)C(C)NC3=CC=CC=C3)N4CCOCC4 [TGX 221] + O=C(CCCCCCC(=O)Nc1ccccc1)NO [Vorinostat] (partner 1 µM)
Procedure, shortened: as §1

TGX 221 + Decitabine = compound: CC1=CN2C(=O)C=C(N=C2C(=C1)C(C)NC3=CC=CC=C3)N4CCOCC4 [TGX 221] + Nc1ncn([C@H]2C[C@H](O)[C@@H](CO)O2)c(=O)n1 [Decitabine] (partner 2 µM)
Procedure, shortened: as §1

[2] = compound: C1=CC=C(C(=C1)C2=CC=C(C=C2)C3=CSC4=C3C(=C(C(=O)N4)C#N)O)O + CCNC(=O)c1noc(-c2cc(C(C)C)c(O)cc2O)c1-c1ccc(CN2CCOCC2)cc1 [Luminespib] (partner 0.01 µM)
Procedure, shortened: as §1

| Cell Line | relative viability ([1]; first compound 0.08 µM) | relative viability ([1]; first compound 0.253 µM) | relative viability ([1]; first compound 0.8 µM) | relative viability ([1]; first compound 2.53 µM) | relative viability (TGX 221 + Vorinostat; first compound 0.08 µM) | relative viability (TGX 221 + Vorinostat; first compound 0.253 µM) | relative viability (TGX 221 + Vorinostat; first compound 0.8 µM) | relative viability (TGX 221 + Vorinostat; first compound 2.53 µM) | relative viability (TGX 221 + Vorinostat; first compound 8 µM) | relative viability (TGX 221 + Decitabine; first compound 0.08 µM) | relative viability (TGX 221 + Decitabine; first compound 0.253 µM) | relative viability (TGX 221 + Decitabine; first compound 0.8 µM) | relative viability (TGX 221 + Decitabine; first compound 2.53 µM) | relative viability (TGX 221 + Decitabine; first compound 8 µM) | relative viability ([2]; first compound 0.08 µM) | relative viability ([2]; first compound 0.253 µM) | relative viability ([2]; first compound 0.8 µM) | relative viability ([2]; first compound 2.53 µM) | relative viability ([2]; first compound 8 µM) |
| --- | --- | --- | --- | --- | --- | --- | --- | --- | --- | --- | --- | --- | --- | --- | --- | --- | --- | --- | --- |
| NCI-H2009 | 0.834 | 0.979 | 0.93 | 0.763 | 0.731 | 0.687 | 0.72 | 0.819 | 0.559 | 0.384 | 0.339 | 0.352 | 0.471 | 0.327 | 0.962 | 1.02 | 1.11 | 1.03 | 1.02 |
| NCI-H2023 | 0.822 | 1.09 | 0.88 | 0.839 | 0.552 | 0.701 | 0.759 | 0.495 | 0.502 | 0.224 | 0.236 | 0.243 | 0.217 | 0.23 | 0.59 | 0.752 | 0.767 | 0.956 | 0.643 |
| NCI-H2085 |  | 1.15 | 0.969 | 0.765 | 0.86 | 0.667 | 0.562 | 0.416 | 0.436 | 0.59 | 0.524 | 0.548 | 0.414 | 0.451 | 0.403 | 0.475 | 0.479 | 0.499 | 0.416 |
| NCI-H2087 | 0.895 | 0.54 | 0.806 | 0.456 | 0.814 | 0.855 | 0.483 | 0.664 | 0.932 | 0.231 | 0.261 | 0.235 | 0.252 | 0.304 | 0.165 | 0.162 | 0.222 | 0.172 | 0.204 |
| NCI-H2126 | 0.95 | 1.07 | 1.1 | 1.02 | 0.832 | 0.741 | 0.768 | 0.615 | 0.717 | 0.568 | 0.567 | 0.633 | 0.55 | 0.554 | 0.894 | 0.895 | 0.89 | 0.948 | 0.928 |
| NCI-H2347 |  | 1.1 | 0.979 | 0.713 | 0.745 | 0.506 | 0.478 | 0.618 | 0.465 | 0.564 | 0.504 | 0.582 | 0.558 | 0.597 | 0.354 | 0.404 | 0.405 | 0.37 | 0.492 |
| NCI-H2405 | 0.816 | 0.952 | 0.932 | 0.992 | 0.87 | 0.928 | 0.941 | 0.92 | 0.895 | 0.72 | 0.729 | 0.75 | 0.68 | 0.615 | 0.723 | 0.855 | 0.675 | 0.604 | 0.567 |
| NCI-H3122 | 0.914 | 1.08 | 0.987 | 1.09 | 1.02 | 0.823 | 1.08 | 0.969 | 1.04 | 0.405 | 0.33 | 0.422 | 0.378 | 0.548 | 0.106 | 0.0689 | 0.0946 | 0.105 | 0.0854 |
| PC-3 [JPC-3] | 0.832 | 0.791 | 0.791 | 0.829 | 0.719 | 0.715 | 0.839 | 0.655 | 0.881 | 0.749 | 0.802 | 0.826 | 0.815 | 0.898 | 0.564 | 0.774 | 0.787 | 0.679 | 0.74 |
| PC-14 | 0.812 | 0.844 | 0.872 | 0.692 | 0.682 | 0.626 | 0.687 | 0.748 | 0.662 | 0.206 | 0.203 | 0.228 | 0.281 | 0.207 |  | 0.185 | 0.105 | 0.162 | 0.142 |
| RERF-LC-KJ | 1.15 | 1 | 1.11 | 1.02 | 0.684 | 0.708 | 0.678 | 0.69 | 0.678 | 0.632 | 0.75 | 0.762 | 0.692 | 0.678 | 1.34 | 1.37 | 1.44 | 1.17 | 0.843 |
| SK-LU-1 | 0.895 | 1.04 | 0.916 | 0.46 | 0.644 | 0.682 | 0.72 | 0.776 | 0.712 | 0.612 | 0.626 | 0.522 | 0.588 | 0.626 | 0.195 | 0.217 | 0.217 | 0.175 | 0.218 |
| SW 1573 | 0.834 | 1.13 | 1.06 | 1.13 | 0.648 | 0.655 | 0.739 | 0.888 | 0.778 | 0.457 | 0.387 | 0.535 | 0.517 | 0.524 | 0.192 | 0.105 | 0.147 | 0.219 | 0.275 |
| UMC-11 | 0.571 | 0.795 | 0.678 | 0.372 | 0.417 | 0.391 | 0.402 | 0.373 | 0.359 | 0.522 | 0.545 | 0.725 | 0.572 | 0.62 | 0.764 | 1.04 | 1.03 | 1.06 | 0.839 |
